Measured values taken from PubChem BioAssay AID179 (DTP/NCI, 2004).
pEC50, pIC50: −log10 of the molar value. “And” between values parts separate entries of the source, which are not always exact repeats. Equal entries are not always repeated. The source made the active and inactive calls.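 Rule for the calls: active = compounds giving half or more protection of infected cells from virus-caused growth loss, again on retest; inactive = the rest.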 Where a SMILES comes first, the peptide text is derived from it. [ ]: non-standard residue; d: D form. The star is where a group is joined. NMeF = CN[CH](Cc1ccccc1)C(=O)O; NMeV = CN[CH](C(=O)O)C(C)C; Boc = CC(C)(C)OC(=O)*; OBn = c1ccc(CO*)cc1

Test system: CEM cells HIV-1 protection, formazan growth assay
Assay: NCI AIDS Antiviral Assay
Settings: for pIC50: measured here: growth of uninfected CEM cells
Summary of the method: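 Soluble formazan readout of cell growth; CEM cells ± HIV-1; 5 drug concs. ≥50% protection → retest; ≥50% again = moderately active; reproducible 100% = confirmed active.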

SMILES | pEC50 | pIC50 | outcome
COc1c2c(cc3c1OCO3)C13C=CC(OC)CC1N(CC3)C2 (stereo not drawn) | < 3.70 | < 3.70 | 
Cc1ccc(S(=O)(=O)N/N=C2\C=CC3(CC2)C(=O)N(I)c2ccccc23)cc1 (stereo not drawn) |  |  | inactive
CN(C)CC1Cc2ccsc2C1=O (stereo not drawn) | < 3.81 | 5.58 | 
O=c1ccc2ccc3occc(=O)c3c2o1 | < 3.92 | 3.99 | 
COc1ccc(C(OCC2OC(n3ccc(NC(=O)c4ccccc4)nc3=O)C(O)C2O)(c2ccccc2)c2ccccc2)cc1 (stereo not drawn) | < 3.70 | 5.03 | 
Cc1cc(N(CCC#N)CCC#N)ccc1/C=C(\NC(=O)/C=C/c1ccccc1)C(=O)Nc1ccc(Cl)cc1 | < 4.87 | < 4.87 | 
CCN(CC)CCNC(=O)c1nn(-c2ccc(C)cc2)c2c1N(C)S(=O)(=O)c1ccccc1-2 | < 4.11 | 4.25 | 
O=C(O)[C@@H]1CSC(C(O)C(O)C(O)C(O)CO)N1 (stereo partly drawn) | < 3.70 | < 3.70 | 
O=C(/C(=C/c1cccc(Cl)c1)c1ccccc1)c1ccccc1 | < 5.07 | < 5.07 | 
CC(=O)/C(=C/c1ccccc1F)C(=O)c1ccccc1 | < 4.57 | < 4.57 | 
NC(=O)NNC(=O)CCn1[nH]c(=O)c(Cl)c(Cl)c1=O |  |  | inactive
Cn1cnc([N+](=O)[O-])c1Sc1nnnn1C | < 2.99 | 5.26 | 
COC(=O)c1ccc(CSc2ccccc2C(=O)OC)cc1 | < 4.64 | 4.72 | 
COC(=O)/C=C/c1cc(OC)c(OC)c(OC)c1 | < 3.60 | 3.77 | 
Cc1ccccc1C1CC(=O)CC(c2ccccc2C)C12C(=O)NC(=O)NC2=O (stereo not drawn) | < 3.70 | 3.98 | 
O=C1CCCCCC1CC(Sc1ccccc1)Sc1ccccc1 (stereo not drawn) | < 3.70 | 4.79 | 
Cc1ccc(/C=C2\NC(=S)N(CN3CCOCC3)C2=O)cc1 | < 3.70 | 4.34 | 
CS(=O)(=O)OCCN1CCN(C(=O)c2cccc3c(Nc4ccc(S(=O)(=O)N=C(N)N)cc4)c4ccccc4nc23)CC1 | < 4.45 | < 4.45 | 
CCOC(=O)CC/C(C)=N\n1c(Cc2ccc(Cl)cc2)n[nH]c1=O |  |  | inactive
CCCCc1ccc(C2=C(O)C(=O)C(c3ccc(CCCC)cc3)=C(O)C2=O)cc1 | < 4.36 | 5.48 | 
O=C1Sc2ccccc2Cn2cccc21 | 3.73 | < 3.70 | 
Fc1cccc(F)c1C1SCc2nc3ncccc3n21 (stereo not drawn) | 4.40 | 4.21 | 

SMILES | pEC50 | pIC50 | outcome
[O]=[Sb][c]1ccc(Cl)cc1 | < 3.70 | 5.58 | 
NC(N)=Nc1ccccc1SSc1ccccc1N=C(N)N | 5.09 | 4.28 | 
CN(C)CCC(=O)c1ccccc1 |  |  | inactive
COc1ccc(-c2nc(N)n(C)c2SSc2c(-c3ccc(OC)cc3)nc(N)n2C)cc1 | < 4.34 | 5.40 | 
Clc1ccc(C2c3ccccc3-c3nc4ccccc4n32)cc1 (stereo not drawn) | < 3.70 | < 3.70 | 
Nc1sccc1S(=O)(=O)c1ccsc1N | < 3.70 | 4.06 | 
O=C(N1CCN(CCO)CC1)N1c2ccccc2Sc2ccccc21 | < 3.70 | 3.93 | 
N/N=C1\c2ccccc2C2/C(=N\N)c3ccccc3C12 (stereo not drawn) |  |  | inactive
CC1c2c(Cl)nc3ccccc3c2Oc2c1c(Cl)nc1ccccc21 | < 4.85 | < 4.85 | 
CCOc1ccc(NC(=S)NC=C(C(N)=O)C(N)=O)cc1 | < 3.70 | < 3.70 | 
N#Cc1nn(C(N)=O)c(N)c1C#N | < 3.70 | < 3.70 | 
O=C1NC(N2CCOCC2)=N/C1=C\c1ccccc1O | < 3.70 | < 3.70 | 
O=C1CCC2(CCC(=O)NC2=O)C(=O)N1 | < 2.92 | < 2.92 | 
Nc1c(S(=O)(=O)O)cc2cc(S(=O)(=O)O)ccc2c1N=Nc1ccc(/C=C/c2ccc(N=Nc3c(N)c(S(=O)(=O)O)cc4cc(S(=O)(=O)O)ccc34)cc2S(=O)(=O)O)c(S(=O)(=O)O)c1 | 5.55 | 4.10 | 
COC(=O)CC(C(C(=O)OC)C(=O)OC)N1C(=O)OCC1c1ccccc1 (stereo not drawn) | < 3.87 | < 3.87 | 
CC(C)C(NC(=O)OC(C)(C)C)C(=O)N(C)C(Cc1ccccc1)C(=O)N(C)C(C(=O)OCc1ccccc1)C(C)C (stereo not drawn) (Boc-Val-[NMeF]-[NMeV]-OBn; configuration not given here) | < 3.70 | 4.09 and 3.96 | 
COc1ccc(C2[C@H]3C(=O)N(c4ccc(Cc5ccc(N6C(=O)[C@@H]7ON(c8ccccc8)C(c8ccc(OC)cc8)[C@@H]7C6=O)cc5)cc4)C(=O)[C@H]3ON2c2ccccc2)cc1 (stereo partly drawn) | < 5.33 | < 5.33 | 
COC(=O)CCCCC=C(c1cc(Cl)c(OC)c(C(=O)OC)c1)c1cc(Cl)c(OC)c(C(=O)OC)c1 | 5.17 | 4.22 | 
CCC(C)(C)c1ccc(OCCCCNC(=O)c2ccc3ccccc3c2O)c(C(C)(C)CC)c1 | < 3.70 | 5.13 | 
CCOC(=O)/C(C#N)=C/c1cccc(OC)c1 | < 3.81 | < 3.81 | 
CC1=NOC(=O)C12CC2 | < 3.70 | < 3.70 | 
O=C1N2CCCSC2=NC1(c1ccccc1)c1ccccc1 |  |  | inactive

SMILES | pEC50 | pIC50 | outcome
CC(=O)Nc1oc(C)nc1C#N | < 3.70 | < 3.70 | 
COC(=O)C(=O)C1CCCC(c2nc3n(c2O)C(=N)N=N3)C1=O (stereo not drawn) | < 3.11 | < 3.11 | 
COc1ccccc1-c1cc(=O)c2ccc(OC)c(OC)c2o1 | < 3.70 | 4.48 | 
O=C(NCCNCCCNC(=O)c1cc(-c2ccccc2)nc2ccccc12)c1cccc(O)c1O | < 3.70 | 5.49 | 
O=C(c1ccccc1)N1C2CCC1C(C(F)(F)F)=C2C(F)(F)F |  |  | inactive
CCC1=NC(N/N=C/c2ccco2)=N/C1=C\c1ccco1 | < 3.70 | 3.96 | 
CN(c1ccc(Cl)cc1)S(=O)(=O)c1ccccc1 | < 3.70 | 4.30 | 
COc1cc2cnc3c4cc(OC(C)C)c(OC)cc4ccc3c2cc1OC |  |  | inactive
O=C(O)C12CCCCC1CCCC2 (stereo not drawn) | < 3.43 | < 3.43 | 
CC(=O)Oc1ccc2c(C)cc(=O)oc2c1 | < 3.70 | 3.77 | 
O=[N+]([O-])c1cc(Cl)c(O)c(N=Nc2cc(S(=O)(=O)O)c3cccc4c3c2N=NN4)c1 | < 4.04 | 4.29 | 
O=C(CCC(NC(=O)OCc1ccccc1)C(=O)OCc1ccccc1)Nc1cccc(OCc2ccccc2)c1 (stereo not drawn) | < 3.70 | 4.45 | 
C=C1[C@@H](OC(C)=O)[C@H]2[C@@H](OC(C)=O)[C@@](C)(OC(C)=O)C[C@]2(OC(C)=O)C(=O)[C@@H](C)/C=C/C(C)(C)C(=O)C[C@H]1OC(C)=O | < 3.70 | 4.14 | 
O=C(O)CCSSCCCCCS(=O)O | < 3.70 | 4.62 | 
O=C(CSc1nnc(CSc2ccc(Cl)cc2)n1-c1ccccc1)NC(=O)Nc1ccccc1 | < 3.74 | 3.94 | 
COc1cc(C(c2c(O)c3ccccc3oc2=O)c2c(O)c3ccccc3oc2=O)ccc1O | < 3.70 | 4.25 | 
Cc1nc(Nc2ccccc2Cl)sc1C(=O)CC(=O)C(=O)Nc1c(Cl)cccc1Cl | < 3.70 | 4.24 | 
COc1cc2c(cc1O)C1C(O)C(O)C=C3CCN(C2)C31 (stereo not drawn) |  |  | inactive
CCOP(=O)(OCC)C1CCCOC1=O (stereo not drawn) |  |  | inactive
S=c1oc(CCCCCCCCc2nn(CNc3ccccc3)c(=S)o2)nn1CNc1ccccc1 | < 3.70 | < 3.70 | 
